Test results taken from US20110152092A1, “Herbicidal compositions comprising flufenacet” (Bayer CropScience AG, priority 2009, published 2011).

Columns and labels:
[1] = system: ALOMY; test: Greenhouse trial, PE application on sensitive and resistant biotypes (test method 8); format: in vivo, Alopecurus myosuroides; settings: g of AS/ha: (A) 90, (B) 1200, (C) 90, mixture 90 + 1200 + 90, iodosulfuron 10; for activity ALOMY resistant (visual, scale 0-100%): resistant biotype; for activity ALOMY sensitive (visual, scale 0-100%): sensitive biotype
Procedure: (§1) In the standard design of the test, seeds of various broad-leaved weed and weed grass biotypes (origins) were sown in a 8-13 cm diameter pot filled with natural soil of a standard field soil (loamy silt; non-sterile) and covered with a covering soil layer of about 1 cm. The pots were then cultivated in a greenhouse (12-16 h of light, temperature day 20-22° C., night 15-18° C.) until the time of application. The pots were treated on a laboratory track sprayer with spray liquors comprising the compositions according to the invention, mixtures of the prior art or components used individually. Application of the active compounds or active compound combinations formulated as WG, WP, EC or otherwise was carried out at the appropriate growth stages of the plants. The application rate for the spray application was 100-600 l of water/ha. After the treatment, the plants were returned to the greenhouses.
(§2) About 3 weeks after the application, the soil action or/and foliar action was assessed visually according to a scale of 0-100% in comparison to an untreated comparative group: 0%=no noticeable effect compared to the untreated comparative group; 100%=full effect compared to the untreated comparative group.
(§3) (notes: the term “seeds” also includes vegetative propagation forms such as, for example, rhizome pieces; abbreviations used: h light=hours of illumination, g of AS/ha=gram of active substance per hectare, l/ha=liter per hectare, S=sensitive, R=resistant) • 1. Pre-emergence action against weeds: seeds of various broad-leaved weed and weed grass biotypes (origins) were sown in a 8-13 cm diameter pot filled with natural soil of a standard field soil (loamy silt; non-sterile) and covered with a covering soil layer of about 1 cm. The pots were then cultivated in a greenhouse (12-16 h of light, temperature day 20-22° C., night 15-18° C.) until the time of application. The pots were treated at the BBCH stage 00-10 of the seeds/plants on a laboratory track sprayer with spray liquors comprising the compositions according to the invention, mixtures or components used individually, as WG, WP, EC or other formulations. The application rate for the spray application was 100-600 l of water/ha. After the treatment, the plants were returned to the greenhouses and, when required, treated with fertilizer and watered. • 2. Post-emergence action against weeds: seeds of various broad-leaved weed and weed grass biotypes (origins) were sown in a 8-13 cm diameter pot filled with natural soil of a standard field soil (loamy silt; non-sterile) and covered with a covering soil layer of about 1 cm. The pots were then cultivated in a greenhouse (12-16 h of light, temperature day 20-22° C., night 15-18° C.) until the time of application. The pots were treated at various BBCH stages between 11-25 of the seeds/plants, i.e. generally between two to three weeks after the start of the cultivation, on a laboratory track sprayer with spray liquors comprising the compositions according to the invention, mixtures or components used individually, as WG, WP, EC or other formulations. The application rate for the spray application was 100-600 l of water/ha. After the treatment, the plants were returned to the greenhouses and, when required, treated with fertilizer and watered. • 3. Selective pre-emergence action: seeds of various crop species (origins) were sown in a 8-13 cm diameter pot filled with natural soil of a standard field soil (loamy silt; non-sterile) and covered with a covering soil layer of about 1 cm. The pots were then cultivated in a greenhouse (12-16 h of light, temperature day 20-22° C., night 15-18° C.) until the time of application. The pots were treated at the BBCH stage 00-10 of the seeds/plants on a laboratory track sprayer with spray liquors comprising the compositions according to the invention, mixtures or components used individually, as WG, WP, EC or other formulations. The application rate for the spray application was 100-600 l of water/ha. […]

[2] = system: MATCH; test: Greenhouse trial, PE application with different irrigation variations (test method 6); format: in vivo, Matricaria chamomilla; settings: irrigation from above, g of AS/ha: (A) 120, (B) 1200, (C) 90, mixture 120 + 1200 + 90
Procedure: as §1, §2
(§4) (notes: the term “seeds” also includes vegetative propagation forms such as, for example, rhizome pieces; abbreviations used: h light=hours of illumination, g of AS/ha=gram of active substance per hectare, l/ha=liter per hectare, S=sensitive, R=resistant) • 1. Pre-emergence action against weeds: seeds of various broad-leaved weed and weed grass biotypes (origins) were sown in a 8-13 cm diameter pot filled with natural soil of a standard field soil (loamy silt; non-sterile) and covered with a covering soil layer of about 1 cm. The pots were then cultivated in a greenhouse (12-16 h of light, temperature day 20-22° C., night 15-18° C.) until the time of application. […]

[3] = system: LOLPE; test: Greenhouse trial, PO application, post-emergence action against weeds (test method 2); format: in vivo, Lolium perenne; settings: g of AS/ha: (A) 120, (B) 1200, (C) 120, mixture 120 + 1200 + 120
Procedure: as §1
as §2, with “group. […]” for “group.”

[4] = system: MATCH; test: Greenhouse trial, activity with different soil types; format: in vivo, Matricaria chamomilla; settings: g of AS/ha: (A) 120, (B) 1200, (C) 90, mixture 120 + 1200 + 90
Procedure: as §1, §2
(notes: the term “seeds” also includes vegetative propagation forms such as, for example, rhizome pieces; abbreviations used: h light=hours of illumination, g of AS/ha=gram of active substance per hectare, l/ha=liter per hectare, S=sensitive, R=resistant) • 1. Pre-emergence action against weeds: seeds of various broad-leaved weed and weed grass biotypes (origins) were sown in a 8-13 cm diameter pot filled with natural soil of a standard field soil (loamy silt; non-sterile) and covered with a covering soil layer of about 1 cm. The pots were then cultivated in a greenhouse (12-16 h of light, temperature day 20-22° C., night 15-18° C.) until the time of application. The pots were treated at the BBCH stage 00-10 of the seeds/plants on a laboratory track sprayer with spray liquors comprising the compositions according to the invention, mixtures or components used individually, as WG, WP, EC or other formulations. The application rate for the spray application was 100-600 l of water/ha. After the treatment, the plants were returned to the greenhouses and, when required, treated with fertilizer and watered. • 2. Post-emergence action against weeds: seeds of various broad-leaved weed and weed grass biotypes (origins) were sown in a 8-13 cm diameter pot filled with natural soil of a standard field soil (loamy silt; non-sterile) and covered with a covering soil layer of about 1 cm. The pots were then cultivated in a greenhouse (12-16 h of light, temperature day 20-22° C., night 15-18° C.) until the time of application. The pots were treated at various BBCH stages between 11-25 of the seeds/plants, i.e. generally between two to three weeks after the start of the cultivation, on a laboratory track sprayer with spray liquors comprising the compositions according to the invention, mixtures or components used individually, as WG, WP, EC or other formulations. The application rate for the spray application was 100-600 l of water/ha. After the treatment, the plants were returned to the greenhouses and, when required, treated with fertilizer and watered. • 3. […]

[5] = system: APESV; test: Greenhouse trial, PE application at different sowing depths (test method 9); format: in vivo, Apera Spica-venti; settings: sowing depth 5 mm, g of AS/ha: (A) 120, (B) 1200, (C) 90, mixture 90 + 1200 + 90
Procedure: as §1, §2, §4

[6] = system: STEME; test: Greenhouse trial, activity with different soil types; format: in vivo, Stellaria media; settings: g of AS/ha: (A) 120, (B) 1200, (C) 90, mixture 120 + 1200 + 90
Procedure: as §1, §2, §3

| SMILES | activity ALOMY resistant (visual, scale 0-100%) [1] | activity ALOMY sensitive (visual, scale 0-100%) [1] | activity MATCH (visual, scale 0-100%) [2] | activity LOLPE (visual, scale 0-100%) [3] | Difference of the soil types, MATCH ([4]; IU/EC73 soil versus IU soil) | activity MATCH IU/EC73 soil (visual, scale 0-100%) ([4]; IU/EC73 soil) | activity APESV 5 mm (visual, scale 0-100%) [5] | activity STEME IU soil (visual, scale 0-100%) ([6]; IU soil) | Difference of the soil types, STEME ([6]; IU/EC73 soil versus IU soil) |
| --- | --- | --- | --- | --- | --- | --- | --- | --- | --- |
| COc1nc(C)nc(NC(=O)NS(=O)(=O)c2cc(I)ccc2C(=O)O)n1 [C)^1 iodosulfuron, iodosulfuron] | 50% | 98% |  |  |  |  |  |  |  |
| CC(C)N(C(=O)COc1nnc(C(F)(F)F)s1)c1ccc(F)cc1 [(A) flufenacet, N-(4-fluorophenyl)-N-(1-methylethyl)-2-[[5-(trifluoromethyl)-1,3,4-thiadiazol-2-yl]oxy]acetamide] | 68% | 80% | 97% | 65% | −28% | 0% | 67% | 89% | −89% |
